These are literature values, as cited in publication PMC10814857, “Functional Classification and Interaction Selectivity Landscape of the Human SH3 Domain Superfamily” (Cells, 2024).

Series [1] concerns the target GRB2-1 SH3 domain. As to conditions: Table S4, cited from earlier work. Here is the method:
(§1) page 6: […] […] […] PAK2 […] PXXXPR PXXXPR 1.05 ITC [34] TRSVI ITSN1-2 Synthetic […] Exceptional [W/F][R/W]xSx[A/ 53 ITC [29] peptide G][F/Y][L/V]xGP[ W/L] NCK1-2 N-WASP GP[…] … 147 HSQC [64] VA[…] 199 PLCG1 SOS1 AAPV[…] … 0.20mM SPR [75] AADS[…] 0.40mM AAES[…] 0.70mM AAIA[…] 0.28mM BAIAP2L1 EspFUR45 IPP[…] … 0.5 nM ITC [76] (IRTKS) 9 SORBS2- Synthetic […] Exceptional XRXGXAYLXYVX 38 ITC [29] 1 peptide Synthetic RL[…](L/P) ...

Series [2] addresses ABL1 SH3 domain. Also noted: method as in ref [67] (a number printed in a supplementary file, which may have a reference list of its own: not looked up in the article's list). The conditions noted are these: ABL1, FL, Table S4; ref [67]; cited from earlier work.
For series [3], the target named is NCK1-1 SH3 domain. The conditions noted are these: NCK1-1, HSQC, Table S4; ref [64]; cited from earlier work.
Series [4] addresses STAC2 SH3 domain. As to conditions: STAC2, ITC, Table S4; ref [59]; cited from earlier work. Here is the method:
as §1

For series [5], the target named is FYN SH3 domain. Also noted: method as in ref [73] (a number printed in a supplementary file, which may have a reference list of its own: not looked up in the article's list). As to conditions: HSQC, Table S4, ref [73], cited from earlier work.
Series [6] addresses CRK-1 SH3 domain. Also noted: method as in 3 sources, one per row (each row's own in cited_ref): ref [15] (a number printed in a supplementary file, which may have a reference list of its own: not looked up in the article's list) ||| ref [69] (a number printed in a supplementary file, which may have a reference list of its own: not looked up in the article's list) ||| ref [17] (a number printed in a supplementary file, which may have a reference list of its own: not looked up in the article's list). As to conditions: CRK-1, FL, Table S4, cited from earlier work.

In series [7] the target is p85A SH3 domain. More on the design: method as in ref [3] (a number printed in a supplementary file, which may have a reference list of its own: not looked up in the article's list). The conditions noted are these: SPR, Table S4, ref [3]; cited from earlier work.
Series [8] addresses CRK-1 SH3 domain. More on the design: method as in ref [71] (a number printed in a supplementary file, which may have a reference list of its own: not looked up in the article's list). The conditions noted are these: CRK-1, SPR, Table S4; ref [71]; cited from earlier work.
Series [9] concerns the target PLCG1 SH3 domain. As to conditions: PLCG1, SPR, Table S4; ref [75]; cited from earlier work. How it is done:
as §1

The target of series [10] is GRAP2-2 SH3 domain. As to conditions: GRAP2-2, ITC, Table S4, cited from earlier work. How it is done:
as §1

The target of series [11] is GRB2-2 SH3 domain. The conditions noted are these: Table S4, cited from earlier work. Here is the method: as §1
Series [12] addresses NCK1-3 SH3 domain. The conditions noted are these: NCK1-3, HSQC, Table S4; ref [64]; cited from earlier work. Here is the method:
page 6: […][…] […] PAK2 […] PXXXPR PXXXPR 1.05 ITC [34] TRSVI ITSN1-2 Synthetic […] Exceptional [W/F][R/W]xSx[A/ 53 ITC [29] peptide G][F/Y][L/V]xGP[ W/L] NCK1-2 N-WASP GP[…] … 147 HSQC [64] VA[…] 199 PLCG1 SOS1 AAPV[…] … 0.20mM SPR [75] AADS[…] 0.40mM AAES[…] 0.70mM AAIA[…] 0.28mM BAIAP2L1 EspFUR45 IPP[…] … 0.5 nM ITC [76] (IRTKS) 9 SORBS2- Synthetic […] Exceptional XRXGXAYLXYVX 38 ITC [29] 1 peptide Synthetic RL[…](L/P) ...

Series [13] has as its target STAC1 SH3 domain. As to conditions: STAC1, ITC, Table S4; ref [59]; cited from earlier work. Here is the method:
as §1

Series [14] concerns the target SRC SH3 domain. Also noted: method as in 3 sources, one per row (each row's own in cited_ref): ref [23] (a number printed in a supplementary file, which may have a reference list of its own: not looked up in the article's list) ||| ref [62] (a number printed in a supplementary file, which may have a reference list of its own: not looked up in the article's list) ||| ref [17] (a number printed in a supplementary file, which may have a reference list of its own: not looked up in the article's list). The conditions noted are these: FL, cited from earlier work.

Series [15] has as its target bPIX (ARHGEF7) SH3 domain. Also noted: method as in 3 sources, one per row (each row's own in cited_ref): ref [33] (a number printed in a supplementary file, which may have a reference list of its own: not looked up in the article's list) ||| ref [60] (a number printed in a supplementary file, which may have a reference list of its own: not looked up in the article's list) ||| ref [34] (a number printed in a supplementary file, which may have a reference list of its own: not looked up in the article's list). The conditions noted are these: ITC, cited from earlier work.

The target in series [16] is SORBS2-1 SH3 domain. As to conditions: SORBS2-1, ITC, Table S4; ref [29]; cited from earlier work. Here is the method: as §1
For series [17], the target named is NCF1-2 (p47phox) SH3 domain. Also noted: method as in ref [14] (a number printed in a supplementary file, which may have a reference list of its own: not looked up in the article's list). The conditions noted are these: FL, Table S4, ref [14]; cited from earlier work.

Read-outs that look alike come from different tables or passages of the source. Where only a bound is given, the exact number is not on record here.

Regarding ESPPLLPPREPV [published SOS1 peptide], the Kd in series [1] (GRB2-1, ITC, ref [79]) was 117 µM.
On to APTYPPPAPP, for which, in [2], the Kd was 5 µM.
Consider APPPPPPSRGG [published N-WASP peptide], for which the Kd in [3] was more than 1000 µM.
For “NENEDKSPYPNPETTGEEDEEEPEMPVGPRPRPLSELHLKEKAVPMPE [published CaV1.2 peptide]”, the Kd in series [4] was 19.3 µM.
For “KRISPPTPKPRPPR [published PI3K-p85a peptide]”, the dissociation constant (Kd) in series [5] (unit mM in the cell) is 0.003 mM.
As for TAAPPPPPPSRP [published N-WASP peptide], in [3], the dissociation constant Kd was more than 1000 µM.
Consider PPPALPPKKR [published C3G peptide], for which the Kd was 142 µM in [1] (GRB2-1, FL, ref [15]); 1.9 µM in series [6] (ref [15]); 1.89 µM in series [6] (ref [69]).
For HSKRPLPPLPSL [published peptide PD1R], the Kd in [7] is 40 µM.
On to “DVADVPPPLPLKGSVADYGNLMENQDLLGSPTPPPPPPHQRHLPPPLPSKT [published DOCK180 peptide]”, for which the Kd in series [8] was 0.35 µM.
AAIAGPPVPPRQST [published SOS1 peptide]: in [9], the equilibrium dissociation constant (Kd) was 0.28 µM.
Take AADSPPAIPPRQPT [published SOS1 peptide]: the Kd in series [9] is 0.4 µM.
“PAPSIDRSTKPPL [published SLP-76 peptide]”: the equilibrium dissociation constant (Kd) in series [10] (ref [55]) was 0.181 µM; in series [11] (GRB2-2, ITC, ref [55]), 9.7 µM.
On to PPPVPPRRRR [published SOS1 peptide], for which the Kd is 3.5 µM in series [1] (GRB2-1, FL, ref [15]) and 5.2 µM in series [6] (ref [15]).
PGPPPPPGLPSD [published N-WASP peptide]: the Kd in series [12] was more than 1 µM.
“NVNEVKDPYPSADFPGDDEEDEPEIPLSPRPRPLAELQLKEKAVPIPE [published CaV1.1 peptide]”: the Kd is 1.85 µM in [4] and 0.78 µM in series [13].
In the case of VSLARRPLPPLP [published peptide VSL12], in series [14] (Table S4, ref [23]), the dissociation constant Kd was 0.45 µM.
In the case of APSYSPPPPP, the Kd in [2] was 1.5 µM.
With “PPRPTPVAPGSSKA [published PI3K-p85a peptide]”, in series [5], the Kd is 0.3 mM.
For “KPSRPPRPSRPPPPTPRRPAS [published Itch peptide]”, in series [15] (Table S4, ref [33]), the equilibrium dissociation constant (Kd) is 1.59 µM.
As to “PPRPLPVAPGSSKA [published PI3K-p85a peptide]”, in series [5], the dissociation constant Kd is 0.05 mM.
Take “EETAPPVIAPRPDHTKSIYTRSVI [published PAK2 peptide]”: the dissociation constant Kd in series [15] (Table S4, ref [34]) was 1.05 µM.
For the sequence YEVPPPVPPRRR [published SOS1 peptide], the dissociation constant Kd in [1] (GRB2-1, FL, ref [17]) was 5 µM; in [14] (Table S4, ref [17]), 25 µM; in [6] (ref [17]), 6 µM.
Take RAPTMPPPLPP [published 3BP-1 peptide]: the Kd in series [2] was 34 µM.
In the case of IAGPPVPPRQST [published SOS1 peptide], the dissociation constant Kd in series [1] (GRB2-1, ITC, ref [79]) was 82 µM.
On to APTYSPPPPP, for which the Kd in series [2] is 0.4 µM.
Regarding PSIDRSTKP [published SLP-76 peptide], in series [10] (ref [57]), the equilibrium dissociation constant (Kd) is 30 µM.
“LRTGEAYLRYVD [published synthetic peptide (SORBS2-1 ligand)]”: in series [16], the Kd was 38 µM.
Turning to PVPPPVPPRRRP [published SOS1 peptide], the dissociation constant Kd was 38.6 µM in series [1] (GRB2-1, ITC, ref [78]); 37 µM in [1] (GRB2-1, NMR, ref [47]); 117 µM in [11] (GRB2-2, ITC, ref [78]); 142 µM in series [11] (GRB2-2, NMR, ref [47]).
Turning to “RLPLRPPLPHTS [published synthetic peptide (SORBS2-1 ligand)]”, the dissociation constant Kd in series [16] is 121 µM.
Regarding “QPPSNPPPRPPAEAR [published p22phox peptide]”, the dissociation constant Kd in series [17] is 8.67 µM.
Turning to “IQPPPVNRNLKPDRK [published Gab2b peptide]”, in [11] (GRB2-2, ITC, ref [48]), the Kd is 17.4 µM.
With PSPHGTRRHLPSPP [published SOS1 peptide], the Kd in series [1] (GRB2-1, NMR, ref [47]) is 208 µM.
Take NRMYPPPPPALP [published N-WASP peptide]: the Kd in series [12] was more than 1 µM.
Regarding LRRQAPPPPPPS [published N-WASP peptide], the Kd in [3] is more than 1000 µM.
Turning to HSKYPLPPLPSL [published peptide PD1], the Kd in series [7] is 120 µM.
APPLPPRNRPRL [published peptide APP12]: the equilibrium dissociation constant (Kd) in [14] (Table S4, ref [23]) was 1.2 µM.
As to AAPVPPPVPPRRRP [published SOS1 peptide], in [9], the Kd was 0.2 µM.
With “QPPSNPPPRPPAEARKKPSE [published p22phox peptide]”, in series [17], the dissociation constant Kd was 0.64 µM.
With APSIDRSTKPP [published SLP-76 peptide], in [10] (ref [55]), the Kd is 0.675 µM.
Regarding VPPPVPPRRR [published SOS1 peptide], the Kd in series [1] (GRB2-1, FL, ref [77]) was 5.6 µM.
In the case of PKPLPRFPKK [published SOS1 peptide], in [1] (GRB2-1, NMR, ref [47]), the equilibrium dissociation constant (Kd) is 250 µM.
Regarding “SAPSGPPPPPPSVL [published N-WASP peptide]”, the equilibrium dissociation constant (Kd) was more than 1 µM in series [12] and more than 1000 µM in [3].
Consider DSPPAIPPRQPT [published SOS1 peptide], for which the Kd in series [1] (GRB2-1, ITC, ref [79]) was 55 µM.
Consider “RALPPLPRY [published synthetic peptide (SRC ligand)]”, for which the Kd in series [14] (Table S4, ref [62]) is 7.8 µM.
For the sequence “SLPGPLTPVAEGQEIGMNTETSGTSAREKELSPPPGLPSKIGSISRQSSL [published ST12 peptide]”, the Kd in series [8] is 0.91 µM.
As for PKLPPKTYKREH [published SOS1 peptide], in series [11] (GRB2-2, NMR, ref [47]), the dissociation constant (Kd) was 156 µM.
Turning to “VAPPPPPPPPPPPG [published N-WASP peptide]”, the Kd in [12] was more than 1 µM.
For the sequence AAESPPLLPPREPV [published SOS1 peptide], in series [9], the equilibrium dissociation constant (Kd) was 0.7 µM.
